Where no end group is shown, it is not given here. 4MPA = not defined here
Tested on: SARS-CoV-2 Delta variant
Type: in vivo, hamster
Conditions: 6 h exposure, 4 hamsters

For “GAICHPVFCPRRYKQIGTCGLPGTKCCKKP-4MPA (cysteine pairing not given here; reading uncertain; also: printed as GAICHPVFCPRRYKQIGTCGLPGTKCCKKP-4MPA) [Peptide 4H30]”, the “transmission to naïve contact hamsters” value was 25%.

From patent US20250171511A1, “ANTIVIRAL PEPTIDES AND METHODS OF USE THEREOF” (Versitech Limited, priority 2021, published 2025)
